From patent US11000601B2, “Conjugated biological molecules, pharmaceutical compositions and methods” (OBI Pharma, Inc., priority 2016, dated 2021)
Values joined by “and” are separate entries in the source; they are usually repeats but may differ in a detail not shown here. Equal values may be shown once. Square brackets hold non-standard residues; d marks the D form. Peptide text beside a SMILES is read from it. * marks the point of attachment. Dolaproine = CO[C@@H]([C@@H]1CCCN1)[C@@H](C)C(=O)O; Dil = CC[C@H](C)[C@H](NC)[C@@H](CC(=O)O)OC; X1 = C[C@@H](N*)[C@@H](O)c1ccccc1; NMeV = CN[C@H](C(=O)O)C(C)C

Test: Body weight, mortality and signs of overt toxicity in NCI-H526 implanted female nu/nu mice
Assay type: in vivo, mouse
Conditions: for Body Weight (g), individual animal No. 1-8: single mice; for Body Weight (g), Mean: group mean; for Body Weight / Body Weight (g): individual mice, 0.191 mg/kg
Experimental: In a xenograft tumor model of human small cell lung cancer, viable NCI-H526 stage E carcinoma; variant small cell lung cancer cells (ATCC CRL-5811), were subcutaneously (SC) implanted (1×10^6 cells with matrigel (1:0.8) in 0.2 mL/mouse) into the right flank of female nu/nu mice. Tumor implanted mice were divided into five treatment groups, each group containing eight animals, and test agent administrations were initiated one day after cell implantation (denoted as Day 1).
Female nu/nu nude, aged 6-7 weeks, were obtained from BioLasco Taiwan (under Charles River Laboratories Licensee) and used. The animals were housed in individually ventilated cages (IVC, 36 Mini Isolator system). The allocation for 5 animals was 27×20×14 in cm. All animals were maintained in a hygienic environment under controlled temperature (20-24° C.) and humidity (30-70%) with 12-hour light/dark cycle. Free access to standard lab diet [MFG (Oriental Yeast Co., Ltd., Japan)] and autoclaved tap water were granted. All aspects of this work including housing, experimentation, and animal disposal were performed in general accordance with the “Guide for the Care and Use of Laboratory Animals: Eighth Edition” (National Academies Press, Washington, D.C., 2011) in our AAALAC-accredited laboratory animal facility. In addition, the animal care and use protocol was reviewed and approved by the IACUC at Eurofins Panlabs Taiwan, Ltd.
The tumor volumes, body weights, mortality, and signs of overt toxicity were monitored and recorded twice weekly for 45 days. Tumor growth inhibition was calculated as T/C (treatment/control)×100%. A T/C value≤42% compared to that of the vehicle control group was considered significant anti-tumor activity. Two-way ANOVA followed by Bonferroni test was used to ascertain the statistically significant significance of groups compared to respective vehicle control (*p<0.05).

[1] = Day 15, NCI-H526 xenograft, female nu/nu mice, OBI-999/OBI-888 10 mg/kg IV, MMAE 0.191 mg/kg IP, once weekly x 4
[2] = Day 18, NCI-H526 xenograft, female nu/nu mice, OBI-999/OBI-888 10 mg/kg IV, MMAE 0.191 mg/kg IP, once weekly x 4
[3] = Day 31, NCI-H526 xenograft, female nu/nu mice, OBI-999/OBI-888 10 mg/kg IV, MMAE 0.191 mg/kg IP, once weekly x 4
[4] = Day 39, NCI-H526 xenograft, female nu/nu mice, OBI-999/OBI-888 10 mg/kg IV, MMAE 0.191 mg/kg IP, once weekly x 4
[5] = Gr. 8, 0.191 mg/kg × 4 IP once weekly, Day 57
[6] = Gr. 8, 0.191 mg/kg × 4 IP once weekly, Day 60
[7] = Gr. 8, 0.191 mg/kg × 4 IP once weekly, Day 64
[8] = Gr. 8, 0.191 mg/kg × 4 IP once weekly, Day 67
[9] = Gr. 8, 0.191 mg/kg × 4 IP once weekly, Day 70
[10] = Gr. 8, 0.191 mg/kg × 4 IP once weekly, Day 74
[11] = Gr. 8, 0.191 mg/kg × 4 IP once weekly, Day 78
[12] = Gr. 8, 0.191 mg/kg × 4 IP once weekly, Day 81
[13] = Gr. 8, 0.191 mg/kg × 4 IP once weekly, Day 85

## CC[C@H](C)[C@@H]([C@@H](CC(=O)N1CCC[C@H]1[C@H](OC)[C@@H](C)C(=O)N[C@H](C)[C@@H](O)c1ccccc1)OC)N(C)C(=O)[C@@H](NC(=O)[C@@H](NC)C(C)C)C(C)C [MMAE, monomethyl auristatin E] (H-[NMeV]V[Dil][Dolaproine]-X1)
Day 11, NCI-H526 xenograft, female nu/nu mice, OBI-999/OBI-888 10 mg/kg IV, MMAE 0.191 mg/kg IP, once weekly x 4
  Body Weight (g), individual animal No. 1-8: 24 g (3×) and 28 g (2×) and 23 g (2×) and 25 g
[1]
  Body Weight (g), Mean: 25.4 g
  Body Weight (g), individual animal No. 1-8: 25 g (2×) and 28 g (2×) and 24 g (2×) and 23 g and 26 g
[2]
  Body Weight (g), Mean: 25.4 g
  Body Weight (g), individual animal No. 1-8: 25 g (3×) and 28 g (2×) and 24 g (3×)
Day 22, NCI-H526 xenograft, female nu/nu mice, OBI-999/OBI-888 10 mg/kg IV, MMAE 0.191 mg/kg IP, once weekly x 4
  Body Weight (g), individual animal No. 1-8: 24 g (2×) and 28 g (2×) and 25 g (4×)
Day 25, NCI-H526 xenograft, female nu/nu mice, OBI-999/OBI-888 10 mg/kg IV, MMAE 0.191 mg/kg IP, once weekly x 4
  Body Weight (g), individual animal No. 1-8: 26 g (3×) and 30 g and 29 g and 25 g (3×)
Day 29, NCI-H526 xenograft, female nu/nu mice, OBI-999/OBI-888 10 mg/kg IV, MMAE 0.191 mg/kg IP, once weekly x 4
  Body Weight (g), individual animal No. 1-8: 25 g and 32 g and 31 g and 26 g (2×) and 27 g (3×)
[3]
  Body Weight (g), Mean: 27.8 g
  Body Weight (g), individual animal No. 1-8: 25 g and 32 g (2×) and 26 g (2×) and 27 g (3×)
Day 36, NCI-H526 xenograft, female nu/nu mice, OBI-999/OBI-888 10 mg/kg IV, MMAE 0.191 mg/kg IP, once weekly x 4
  Body Weight (g), individual animal No. 1-8: 26 g (2×) and 33 g (2×) and 28 g and 27 g and 29 g (2×)
[4]
  Body Weight (g), Mean: 30.3 g
  Body Weight (g), individual animal No. 1-8: 27 g (3×) and 38 g and 34 g and 30 g (2×) and 29 g
[5]
  Body Weight: 27 g (4×) and 24 g and 26 g
  Body Weight (g): died
[6]
  Body Weight: 27 g (2×) and 25 g and 28 g (2×) and 26 g
  Body Weight (g): died
[7]
  Body Weight (g), Mean: 26.7 g
  Body Weight: 27 g (4×) and 24 g and 28 g
  Body Weight (g): died
[8]
  Body Weight: 27 g (2×) and 25 g and 28 g (3×)
  Body Weight (g): died
[9]
  Body Weight: 26 g (2×) and 25 g and 27 g (3×)
  Body Weight (g): died
[10]
  Body Weight: 27 g and 24 g (2×) and 28 g (3×)
  Body Weight (g): died
[11]
  Body Weight: 28 g (4×) and 25 g (2×)
  Body Weight (g): died
[12]
  Body Weight: 28 g (3×) and 25 g and 27 g and 24 g
  Body Weight (g): died
[13]
  Body Weight: 27 g and 25 g and 28 g (2×) and 29 g and 23 g
  Body Weight (g): died
Gr. 8, 0.191 mg/kg × 4 IP once weekly, Day 100
  Body Weight (g), Mean: 27.9 g
